Key:
[1] = system: non-small cell lung carcinoma A549 cells; experiment: Anti-proliferation assay (Alamar Blue metabolism), A549 cells; type: cell-based; conditions: 72 h
Procedure: Inhibition of proliferation was measured by anti-proliferation assay as described below after incubation with the test compound(s) for 72 hours.
(§1) The combination matrices were used immediately and discarded.
Cells were diluted in culture media such that 3,000 SKMEL-28 cells, or 1,500 cells for all the other cell lines, were delivered in 35 μl of media into each assay well. Assay plates were incubated for 16-24 hours 37° C.±0.5° C. with 5% CO2. […] Assay plates were further incubated for 72 hours at 37° C.±0.5° C. with 5% CO2. […] Alamar Blue metabolism was quantified by the amount of fluorescence intensity 3.5-5.0 hours after addition.
The percent inhibition (% I) for each well was calculated using the following formula: % I=[(avg. untreated wells−treated well)/(avg. untreated wells)]×100 The average untreated well value (avg. untreated wells) is the arithmetic mean of 40 wells from the same assay plate treated with vehicle alone.

[2] = system: human colorectal carcinoma HCT116 cells; experiment: Anti-proliferation assay (Alamar Blue metabolism), HCT116 cells; conditions: for Percent inhibition of Alamar Blue Metabolism in HCT116 cells: 72 h;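 on all read-outs here: cells in 384-well plates exposed to compound combination matrices for 72 h, Alamar Blue fluorescence read (excitation 530 nm), inhibition calculated against mean of vehicle-only wells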
Procedure: Stock solutions (1000×) of each compound were prepared in DMSO and stored at −20° C. Master stock plates of 2-fold or 4-fold serial dilutions of individual compounds were prepared in 384-well plates. Combination matrices of test compounds were generated from these master stock plates by dilution into growth media described above. […] The combination matrices were used immediately and discarded.
The anti-proliferation assays were performed in 384-well plates. […] Cells were diluted in culture media such that 3,000 SKMEL-28 cells, or 1,500 cells for all the other cell lines, were delivered in 35 μl of media into each assay well. Assay plates were incubated for 16-24 hours 37° C.±0.5° C. with 5% CO2. After incubation, 4.5 μl of 10× stock solutions from the combination matrices were added to 40 μl of culture media. Assay plates were further incubated for 72 hours at 37° C.±0.5° C. with 5% CO2. […] Alamar Blue metabolism was quantified by the amount of fluorescence intensity 3.5-5.0 hours after addition. Quantification, using an LJL Analyst AD reader (LJL Biosystems), was taken in the middle of the well with high attenuation, a 100 msec read time, an excitation filter at 530 nm, and an emission filter at 575 nm. For some experiments, quantification was performed using a Wallac Victor^2 reader. Measurements were taken at the top of the well with stabilized energy lamp control; a 100 msec read time, an excitation filter at 530 nm, and an emission filter at 590 nm.

[3] = system: human melanoma SKMEL-28 cells; experiment: Anti-proliferation assay (Alamar Blue metabolism), SKMEL-28 cells; type: cell-based; conditions: 72 h
Excerpt: as §1

[4] = system: human pancreatic cancer PANC1 cells; experiment: Anti-proliferation assay (Alamar Blue metabolism), PANC1 cells; type: cell-based; conditions: 72 h
Excerpt: as §1

[5] = system: human prostate cancer DU145 cells; experiment: Anti-proliferation assay (Alamar Blue metabolism), DU145 cells; type: cell-based; conditions: 72 h
Excerpt: as §1

## CCC(C)n1ncn(-c2ccc(N3CCN(c4ccc(OCC5COC(Cn6cncn6)(c6ccc(Cl)cc6Cl)O5)cc4)CC3)cc2)c1=O (centres unmarked) [Itraconazole, itraconazole]
[1]; itraconazole 0.87 μM + simvastatin at row conc. c1 (0-48 μM)
  Percent inhibition of Alamar Blue Metabolism in A549 cells: 13.5%
[1]; itraconazole 7 μM + simvastatin at row conc. c1 (0-48 μM)
  Percent inhibition of Alamar Blue Metabolism in A549 cells: 4.0%
[1]; itraconazole 14 μM + simvastatin at row conc. c1 (0-48 μM)
  Percent inhibition of Alamar Blue Metabolism in A549 cells: 13.3%
[1]; itraconazole 28 μM + simvastatin at row conc. c1 (0-48 μM)
  Percent inhibition of Alamar Blue Metabolism in A549 cells: 13.9%
[2]; Homo sapiens, HCT-116, read-out: Percent inhibition of Alamar Blue Metabolism, cerivastatin 0 μM, itraconazole 7 μM
  inhibition at 7 µM: 24.3%
[2]; Homo sapiens, HCT-116, read-out: Percent inhibition of Alamar Blue Metabolism, cerivastatin 0 μM, itraconazole 28 μM
  inhibition at 28 µM: 27.7%
[2]; Table 2: itraconazole 0.87 μM + simvastatin at row conc. c1 (0-48 μM)
  Percent inhibition of Alamar Blue Metabolism in HCT116 cells: 3.9%
[2]; Table 2: itraconazole 7 μM + simvastatin at row conc. c1 (0-48 μM)
  Percent inhibition of Alamar Blue Metabolism in HCT116 cells: 18.9%
[2]; Table 2: itraconazole 14 μM + simvastatin at row conc. c1 (0-48 μM)
  Percent inhibition of Alamar Blue Metabolism in HCT116 cells: 19.2%
[2]; Table 2: itraconazole 28 μM + simvastatin at row conc. c1 (0-48 μM)
  Percent inhibition of Alamar Blue Metabolism in HCT116 cells: 18.6%
[2]; Table 3: itraconazole 0.87 μM + simvastatin sodium at row conc. c1 (0-22 μM)
  Percent inhibition of Alamar Blue Metabolism in HCT116 cells: −10.7%
[2]; Table 3: itraconazole 7 μM + simvastatin sodium at row conc. c1 (0-22 μM)
  Percent inhibition of Alamar Blue Metabolism in HCT116 cells: 12.2%
[2]; Table 3: itraconazole 14 μM + simvastatin sodium at row conc. c1 (0-22 μM)
  Percent inhibition of Alamar Blue Metabolism in HCT116 cells: 10.6%
[2]; Table 3: itraconazole 28 μM + simvastatin sodium at row conc. c1 (0-22 μM)
  Percent inhibition of Alamar Blue Metabolism in HCT116 cells: 17.2%
[2]; Table 7: itraconazole 0.87 μM + atorvastatin at row conc. c1 (0-36 μM)
  Percent inhibition of Alamar Blue Metabolism in HCT116 cells: 1.7%
[2]; Table 7: itraconazole 7 μM + atorvastatin at row conc. c1 (0-36 μM)
  Percent inhibition of Alamar Blue Metabolism in HCT116 cells: 17.4%
[2]; Table 7: itraconazole 14 μM + atorvastatin at row conc. c1 (0-36 μM)
  Percent inhibition of Alamar Blue Metabolism in HCT116 cells: 18.1%
[2]; Table 7: itraconazole 28 μM + atorvastatin at row conc. c1 (0-36 μM)
  Percent inhibition of Alamar Blue Metabolism in HCT116 cells: 18.6%
[2]; Table 11: itraconazole 0.87 μM + fluvastatin at row conc. c1 (0-49 μM)
  Percent inhibition of Alamar Blue Metabolism in HCT116 cells: 2.2%
[2]; Table 11: itraconazole 7 μM + fluvastatin at row conc. c1 (0-49 μM)
  Percent inhibition of Alamar Blue Metabolism in HCT116 cells: 18.9%
[2]; Table 11: itraconazole 14 μM + fluvastatin at row conc. c1 (0-49 μM)
  Percent inhibition of Alamar Blue Metabolism in HCT116 cells: 20.2%
[2]; Table 11: itraconazole 28 μM + fluvastatin at row conc. c1 (0-49 μM)
  Percent inhibition of Alamar Blue Metabolism in HCT116 cells: 20.4%
[2]; Table 14: itraconazole 0.87 μM + lovastatin at row conc. c1 (0-48 μM)
  Percent inhibition of Alamar Blue Metabolism in HCT116 cells: 5.1%
[2]; Table 14: itraconazole 7 μM + lovastatin at row conc. c1 (0-48 μM)
  Percent inhibition of Alamar Blue Metabolism in HCT116 cells: 17.8%
[2]; Table 14: itraconazole 14 μM + lovastatin at row conc. c1 (0-48 μM)
  Percent inhibition of Alamar Blue Metabolism in HCT116 cells: 19.5%
[2]; Table 14: itraconazole 28 μM + lovastatin at row conc. c1 (0-48 μM)
  Percent inhibition of Alamar Blue Metabolism in HCT116 cells: 20.7%
[2]; Table 15: itraconazole 0.87 μM + lovastatin sodium at row conc. c1 (0-22 μM)
  Percent inhibition of Alamar Blue Metabolism in HCT116 cells: −10.9%
[2]; Table 15: itraconazole 7 μM + lovastatin sodium at row conc. c1 (0-22 μM)
  Percent inhibition of Alamar Blue Metabolism in HCT116 cells: 18.0%
[2]; Table 15: itraconazole 14 μM + lovastatin sodium at row conc. c1 (0-22 μM)
  Percent inhibition of Alamar Blue Metabolism in HCT116 cells: 15.1%
[2]; Table 15: itraconazole 28 μM + lovastatin sodium at row conc. c1 (0-22 μM)
  Percent inhibition of Alamar Blue Metabolism in HCT116 cells: 9.1%
[3]; Table 5: itraconazole 0.87 μM + simvastatin at row conc. c1 (0-48 μM)
  Percent inhibition of Alamar Blue Metabolism in SKMEL-28 cells: 1.0%
[3]; Table 5: itraconazole 7 μM + simvastatin at row conc. c1 (0-48 μM)
  Percent inhibition of Alamar Blue Metabolism in SKMEL-28 cells: 13.5%
[3]; Table 5: itraconazole 14 μM + simvastatin at row conc. c1 (0-48 μM)
  Percent inhibition of Alamar Blue Metabolism in SKMEL-28 cells: 19.3%
[3]; Table 5: itraconazole 28 μM + simvastatin (0-48 μM)
  Percent inhibition of Alamar Blue Metabolism in SKMEL-28 cells: 16.7%
[3]; Table 9: itraconazole 0.87 μM + atorvastatin at row conc. c1 (0-36 μM)
  Percent inhibition of Alamar Blue Metabolism in SKMEL-28 cells: 1.4%
[3]; Table 9: itraconazole 7 μM + atorvastatin at row conc. c1 (0-36 μM)
  Percent inhibition of Alamar Blue Metabolism in SKMEL-28 cells: 11.2%
[3]; Table 9: itraconazole 14 μM + atorvastatin at row conc. c1 (0-36 μM)
  Percent inhibition of Alamar Blue Metabolism in SKMEL-28 cells: 13.0%
[3]; Table 9: itraconazole 28 μM + atorvastatin at row conc. c1 (0-36 μM)
  Percent inhibition of Alamar Blue Metabolism in SKMEL-28 cells: 13.5%
[3]; Table 13: itraconazole 0.87 μM + fluvastatin at row conc. c1 (0-49 μM)
  Percent inhibition of Alamar Blue Metabolism in SKMEL-28 cells: 2.8%
[3]; Table 13: itraconazole 7 μM + fluvastatin at row conc. c1 (0-49 μM)
  Percent inhibition of Alamar Blue Metabolism in SKMEL-28 cells: 11.3%
[3]; Table 13: itraconazole 14 μM + fluvastatin at row conc. c1 (0-49 μM)
  Percent inhibition of Alamar Blue Metabolism in SKMEL-28 cells: 13.3%
[3]; Table 13: itraconazole 28 μM + fluvastatin at row conc. c1 (0-49 μM)
  Percent inhibition of Alamar Blue Metabolism in SKMEL-28 cells: 16.3%
[4]; Table 4: itraconazole 0.87 μM + simvastatin at row conc. c1 (0-48 μM)
  Percent inhibition of Alamar Blue Metabolism in PANC1 cells: 2.6%
[4]; Table 4: itraconazole 7 μM + simvastatin at row conc. c1 (0-48 μM)
  Percent inhibition of Alamar Blue Metabolism in PANC1 cells: −2.6%
[4]; Table 4: itraconazole 14 μM + simvastatin at row conc. c1 (0-48 μM)
  Percent inhibition of Alamar Blue Metabolism in PANC1 cells: 2.1%
[4]; Table 4: itraconazole 28 μM + simvastatin at row conc. c1 (0-48 μM)
  Percent inhibition of Alamar Blue Metabolism in PANC1 cells: 1.7%
[4]; Table 8: itraconazole 0.87 μM + atorvastatin at row conc. c1 (0-36 μM)
  Percent inhibition of Alamar Blue Metabolism in PANC1 cells: 9.8%
[4]; Table 8: itraconazole 7 μM + atorvastatin at row conc. c1 (0-36 μM)
  Percent inhibition of Alamar Blue Metabolism in PANC1 cells: −0.6%
[4]; Table 8: itraconazole 14 μM + atorvastatin at row conc. c1 (0-36 μM)
  Percent inhibition of Alamar Blue Metabolism in PANC1 cells: −4.4%
[4]; Table 8: itraconazole 28 μM + atorvastatin at row conc. c1 (0-36 μM)
  Percent inhibition of Alamar Blue Metabolism in PANC1 cells: −2.5%
[4]; Table 12: itraconazole 0.87 μM + fluvastatin at row conc. c1 (0-49 μM)
  Percent inhibition of Alamar Blue Metabolism in PANC1 cells: 4.9%
[4]; Table 12: itraconazole 7 μM + fluvastatin at row conc. c1 (0-49 μM)
  Percent inhibition of Alamar Blue Metabolism in PANC1 cells: −1.9%
[4]; Table 12: itraconazole 14 μM + fluvastatin at row conc. c1 (0-49 μM)
  Percent inhibition of Alamar Blue Metabolism in PANC1 cells: −8.1%
[4]; Table 12: itraconazole 28 μM + fluvastatin at row conc. c1 (0-49 μM)
  Percent inhibition of Alamar Blue Metabolism in PANC1 cells: −3.7%
[5]; Table 6: itraconazole 0.87 μM + atorvastatin at row conc. c1 (0-36 μM)
  Percent inhibition of Alamar Blue Metabolism in DU145 cells: 0.8%
[5]; Table 6: itraconazole 7 μM + atorvastatin at row conc. c1 (0-36 μM)
  Percent inhibition of Alamar Blue Metabolism in DU145 cells: −3.5%
[5]; Table 6: itraconazole 14 μM + atorvastatin at row conc. c1 (0-36 μM)
  Percent inhibition of Alamar Blue Metabolism in DU145 cells: −4.2%
[5]; Table 6: itraconazole 28 μM + atorvastatin at row conc. c1 (0-36 μM)
  Percent inhibition of Alamar Blue Metabolism in DU145 cells: −8.8%
[5]; Table 10: itraconazole 0.87 μM + fluvastatin at row conc. c1 (0-49 μM)
  Percent inhibition of Alamar Blue Metabolism in DU145 cells: 2.1%
[5]; Table 10: itraconazole 7 μM + fluvastatin at row conc. c1 (0-49 μM)
  Percent inhibition of Alamar Blue Metabolism in DU145 cells: −7.4%
[5]; Table 10: itraconazole 14 μM + fluvastatin at row conc. c1 (0-49 μM)
  Percent inhibition of Alamar Blue Metabolism in DU145 cells: −5.6%
[5]; Table 10: itraconazole 28 μM + fluvastatin at row conc. c1 (0-49 μM)
  Percent inhibition of Alamar Blue Metabolism in DU145 cells: −9.0%
